Data reported in ChEMBL document CHEMBL3044781, “Triterpenoid saponins with antifeedant activities from stem bark of Catunaregam spinosa (Rubiaceae) against Plutella xylostella (Plutellidae)” (2011).

tested on: Plutella xylostella; experiment: Antifeedant activity against second-instar larval stage of Plutella xylostella (diamondback moth) in cabbage leaf disks assessed as consumed leaf area treated for 10 secs before larval infestation measured within 48 hr by non-choice leaf disc method; assay type: functional

Question: With `CC1(C)CC[C@]2(C(=O)O[C@@H]3O[C@H](CO)[C@@H](O)[C@H](O)[C@H]3O)CC[C@]3(C)C(=CC[C@@H]4[C@@]5(C)CC[C@H](O[C@@H]6O[C@H](CO)[C@@H](O)[C@H](O[C@@H]7O[C@H](CO)[C@@H](O)[C@H](O)[C@H]7O)[C@H]6O[C@@H]6OC[C@@H](O)[C@H](O)[C@H]6O)C(C)(C)[C@@H]5CC[C@]43C)[C@@H]2[C@@H]1O` [CATUNAROSIDE] as the molecule, how does the AFC50 read?
Answer: Its AFC50 is 608.42 µg/mL.

Question: For `C[C@@H]1O[C@@H](O[C@H]2[C@H](O[C@H]3CC[C@]4(C)[C@H]5CC=C6[C@@H]7CC(C)(C)CC[C@]7(C(=O)O)CC[C@@]6(C)[C@]5(C)CC[C@H]4C3(C)C)O[C@H](CO)[C@@H](O)[C@@H]2O[C@@H]2O[C@H](CO)[C@@H](O)[C@H](O)[C@H]2O)[C@H](O)[C@H](O)[C@H]1O` [CATUNAROSIDE B], which AFC50 is on record?
Answer: Its AFC50 is 369.63 µg/mL.

Question: `CC1(C)CC[C@]2(C(=O)O[C@@H]3O[C@H](CO)[C@@H](O)[C@H](O)[C@H]3O)CC[C@]3(C)C(=CC[C@@H]4[C@@]5(C)CC[C@H](O[C@@H]6O[C@H](CO)[C@@H](O)[C@H](O[C@@H]7O[C@H](CO)[C@@H](O)[C@H](O)[C@H]7O)[C@H]6O[C@@H]6O[C@H](CO)[C@@H](O)[C@H](O)[C@H]6O)C(C)(C)[C@@H]5CC[C@]43C)[C@@H]2C1` [ARALIA-SAPONIN V] was tested. Which AFC50 did it give?
Answer: The AFC50 was 5467.82 µg/mL.

Question: `CC1(C)CC[C@]2(C(=O)O[C@@H]3O[C@H](CO)[C@@H](O)[C@H](O)[C@H]3O)CC[C@]3(C)C(=CC[C@@H]4[C@@]5(C)CC[C@H](O[C@@H]6O[C@H](CO)[C@@H](O)[C@H](O[C@@H]7O[C@H](CO)[C@@H](O)[C@H](O)[C@H]7O)[C@H]6O[C@@H]6OC[C@@H](O)[C@H](O)[C@H]6O)C(C)(C)[C@@H]5CC[C@]43C)[C@@H]2C1` [ARALIASAPONIN IV] was tested. Which AFC50 did it give?
Answer: The AFC50 was 335.54 µg/mL.

Question: Which AFC50 does the source give for `C[C@@H]1O[C@@H](O[C@H]2[C@H](O[C@H]3CC[C@]4(C)[C@H]5CC=C6[C@@H]7[C@H](O)C(C)(C)CC[C@]7(C(=O)O[C@@H]7O[C@H](CO)[C@@H](O)[C@H](O)[C@H]7O)CC[C@@]6(C)[C@]5(C)CC[C@H]4C3(C)C)O[C@H](CO)[C@@H](O)[C@@H]2O[C@@H]2O[C@H](CO)[C@@H](O)[C@H](O)[C@H]2O)[C@H](O)[C@H](O)[C@H]1O` [CATUNAROSIDE C] here?
Answer: Its AFC50 is 946.13 µg/mL.

Question: `CC1(C)CC[C@]2(C(=O)O)CC[C@]3(C)C(=CC[C@@H]4[C@@]5(C)CC[C@H](O[C@@H]6O[C@H](CO)[C@@H](O)[C@H](O[C@@H]7O[C@H](CO)[C@@H](O)[C@H](O)[C@H]7O)[C@H]6O[C@@H]6OC[C@@H](O)[C@H](O)[C@H]6O)C(C)(C)[C@@H]5CC[C@]43C)[C@@H]2[C@@H]1O` [CATUNAROSIDE A] was tested. Which AFC50 did it give?
Answer: Its AFC50 is 243.23 µg/mL.

Question: For `CC1(C)CC[C@]2(C(=O)O)CC[C@]3(C)C(=CC[C@@H]4[C@@]5(C)CC[C@H](O[C@@H]6O[C@H](CO)[C@@H](O)[C@H](O[C@@H]7O[C@H](CO)[C@@H](O)[C@H](O)[C@H]7O)[C@H]6O[C@@H]6OC[C@@H](O)[C@H](O)[C@H]6O)C(C)(C)[C@@H]5CC[C@]43C)[C@@H]2C1` [SWARTZIATRIOSIDE], which AFC50 is on record?
Answer: The AFC50 was 106.73 µg/mL.
